Test results as given in patent US7229621B2, “Method to enhance the immunogenicity of an antigen” (Torrey Pines Institute for Molecular Studies, priority 1998, dated 2007).
Values joined by “and” are separate entries in the source; they are usually repeats but may differ in a detail not shown here. Equal values may be shown once.

What was measured:
[1] = test system: E.G7-OVA tumor cells; test: E.G7-OVA tumor growth after immunization with tumor antigen and migration inducer; type: in vivo, C57BL/6 mice
Text: The tumor cell, E.G7-OVA, is the C57BL/6 EL4 thymoma transfected with the complete gene for chicken ovalbumin (OVA). The transfected cell line expresses OVA protein, which is also processed naturally by E.G7-OVA cells into an eight amino acid peptide, OVA257-264, with the sequence […]. […] Based on the positive results using FITC, the inventors followed a similar protocol in an attempt to induce immunity to the E.G7-OVA tumor by topical administration of the well-characterized, synthetic […] tumor-associated peptide.
C57BL/6 mice were treated as follows: 1) shaving alone; 2) topical administration of acetone and dibutyl phthalate; 3) topical administration of […] (240 μg/ml) in DMSO diluted in PBS, followed in 5 hours by acetone and dibutyl phthalate; and 4) topical administration of […] (240 μg/ml) in acetone and dibutyl phthalate. All mice were subsequently injected subcutaneously with 5×10^5 E.G7-OVA cells (5-times the minimal tumorogenic dose). Tumor-specific immunity was monitored by measuring the size of the developing tumor.
The mucous membranes lack the tough barrier posed by the stratum corneum of the skin. […] The EL4 parent tumor cell line, lacking chicken ovalbumin, was used as a negative control; no immunity against the EL4 tumor cells was seen. Thus, the inventors' hypothesis regarding penetration of the stratum corneum was confirmed; the […] peptide was not effectively reaching the immature dendritic cells, known as Langerhans cells, underlying the stratum corneum.
To enhance the effectiveness of cutaneous topical administration of peptide, […] was dissolved in DMSO and applied to the skin without further dilution. Dibutyl phthalate in a 50:50 mixture with acetone was applied to the same site 5 hr later. All mice were subsequently injected subcutaneously with 5×10^5 E.G7-OVA cells. The results shown in FIG. 6 indicate that the peptide in concentrated DMSO was apparently able to traverse the stratum corneum, effectively gaining access to the epidermal Langerhans cells. […] Thus, the tumor-specific peptide, […], in concentrated DMSO, penetrated the stratum corneum in sufficient concentration to be incorporated into the MHC class I molecule K^b on epidermal Langerhans cells, and in the presence of the migration inducer, dibutyl phthalate, was effectively presented to CD8+ CTLs in the draining lymph nodes.
To confirm the immunogenicity of the disclosed treatment, groups of 10 C57BL/6 mice were injected with 50 μl of 1.25 mM OVA protein in HBSS, with HBSS alone, or with nothing. This was followed an hour later by topical application of DBP in acetone or with nothing. One month later, the mice were inoculated subcutaneously with 5×10^5 EL4 tumor cells or with 5×10^5 E.G7-OVA tumor cells and subsequent tumor growth was measured.

[2] = test system: E.G7-OVA cells; conditions: endogenous SIINFEKL, reported by Rotzschke et al. and Malarkannan et al.; cited from earlier work
[3] = test system: dendritic cells in draining inguinal lymph nodes; test: Antigen-bearing dendritic cells in lymph nodes after ultrasound application of soluble peptide followed by migration inducer; type: in vivo, C57BL/6 mice
Description: FIG. 9 illustrates the effect of delivering a peptide antigen ([…]) into the skin via ultrasound, followed by topical application of dibutyl phthalate and acetone to maximize the induction of dendritic cell migration and maturation. […] (240 μg) in DMSO, or DMSO alone, was applied to the shaved abdominal skin of C57BL/6 mice and covered with a hydrogel, into which was inserted a 13 mm diameter ultrasound transducer. Ultrasound was applied at 20 kHz and 1.6 W/cm^2, in 1 second pulses every 2 seconds for 6 minutes, for a total ultrasound dose of 288 J/cm^2. Two hours later, a 50:50 v/v solution of acetone and dibutyl phthalate was applied topically to the same area. Two days later, the skin draining inguinal lymph nodes were removed and the cells analyzed by immunofluorescent flow cytometry.
The antigen-bearing dendritic cells that had migrated to the draining lymph node are shown in the upper right quadrant of each dot plot. The dendritic cells in the lymph node were identified by their characteristic light scatter properties and exceptionally high surface expression of MHC class II (FL1), while the antigenic epitope was detected using the K^b:[…]-specific mAb 25-D1.16 (FL2), as described above.
As stated previously, whether mature antigen-bearing dendritic cells will be encountered by and activate naive T cells in the lymph node is likely to depend not only on the number of antigen-bearing dendritic cells that enter the node, but also on the density of MHC:peptide complexes expressed on their membranes. To estimate the density of peptide:MHC complexes on the immigrant dendritic cells generated by this procedure, we compared the fluorescence intensity of various cell populations detected by the peptide:MHC-specific mAb, 25-D1.16, using identical staining conditions and flow cytometer settings. The results are shown in Table IV, providing the number of specific peptide:MHC complexes expressed on the plasma membrane of dendritic cells after various treatments in vitro or in vivo.

[4] = test system: dendritic cells in draining lymph node; test: Antigen-bearing dendritic cells in lymph nodes after injection of soluble protein or peptide with or without topical migration inducer; type: in vivo, mice
Description: The injections were followed 2 hours later by topical application of dibutyl phthalate and acetone to the abdominal skin. The antigen-bearing dendritic cells that had migrated to the draining lymph node two days later were analyzed as described above and are shown in the upper right quadrant of each dot plot.
This was followed 2 hrs later by: A) no further treatment, or B) topical application of dibutyl phthalate and acetone to the abdominal skin. The antigen-bearing dendritic cells that had migrated to the draining lymph node two days later are shown in the upper right quadrant of each dot plot.
As stated previously, whether mature antigen-bearing dendritic cells will be encountered by and activate naive T cells in the lymph node is likely to depend not only on the number of antigen-bearing dendritic cells that enter the node, but also on the density of MHC:peptide complexes expressed on their membranes.

[5] = test system: dendritic cells in draining lymph node; test: Antigen-bearing dendritic cells in lymph node after aqueous antigen applied to skin with DBP and acetone; type: in vivo; conditions: aqueous solution applied to the skin with topical DBP and acetone (data not shown)
Text: Similarly, when an aqueous solution of a […] peptide or OVA protein antigen was applied to the skin along with topical application of the migration inducer, DBP and acetone, no detectable antigen-bearing (i.e., K^b:[…] positive) dendritic cells appeared in the draining lymph node (data not shown).

[6] = 240 μg in DMSO, ultrasound 20 kHz, acetone/dibutyl phthalate 2 hours later, nodes two days later
[7] = immigrant Langerhans cells from inguinal lymph nodes 48 hrs after 240 μg SIINFEKL by ultrasound
[8] = 144 μg in 150 μl HBSS injected, no further treatment, two days later
[9] = 144 μg injected, topical dibutyl phthalate and acetone 2 hrs later, two days later
[10] = 20 μl of 0.5 mM in HBSS injected, dibutyl phthalate and acetone 2 hours later, two days later
[11] = immigrant Langerhans cells from inguinal lymph nodes 48 hrs after 4.8 μg SIINFEKL injected

Sequence: SIINFEKL [eight amino acid peptide OVA257-264 of chicken ovalbumin, tumor-associated peptide antigen presented by K^b]
- protection against E.G7-OVA tumor ([1]; SIINFEKL in acetone and dibutyl phthalate applied to the vaginal epithelium (FIG. 5)): protection against the tumor was induced
- established E.G7-OVA tumors ([1]; SIINFEKL in undiluted DMSO on skin, dibutyl phthalate 50:50 acetone 5 hr later (FIG. 6)): diminished by 16 days post-inoculation
- E.G7-OVA tumor growth ([1]; SIINFEKL in undiluted DMSO on skin, dibutyl phthalate 50:50 acetone 5 hr later, 5×10^5 cells s.c. (FIG. 6)): suppressed after 6 to 9 days
- inhibition of E.G7-OVA tumor cell growth ([1]; cutaneous topical SIINFEKL 240 μg/ml in DMSO diluted in PBS then acetone and dibutyl phthalate, or in acetone and dibutyl phthalate, 5×10^5 cells s.c. (FIG. 4)): none of the treatment protocols were effective
- Median No. of Complexes/Cell [2]: 88 complexes/cell and 90 complexes/cell and 89^d complexes/cell
- Dendritic Cells per Lymph Node [3, 6]: 51,968
- K^b:SIINFEKL^+ DC per LymphNode [3, 6]: 13,216
- Total Cells per Lymph Node [3, 6]: 5.6 × 10^6
- Enhancement ([3]; K^b:SIINFEKL+ DC versus DMSO alone): 5×
- Median No. of Complexes/Cell [3, 7]: 633 complexes/cell
- Median Specific Fl. Intensity [3, 7]: 32
- cells reactive with mAb 25-D1.16 relative to absence of SIINFEKL ([3]; ultrasound-mediated topical exposure to SIINFEKL): five times
- Dendritic Cells per Lymph Node [4, 8]: 3,024
- K^b:SIINFEKL^+ DC per LymphNode [4, 8]: 504
- Total Cells per Lymph Node [4, 8]: 6.3 × 10^6
- Dendritic Cells per Lymph Node [4, 9]: 55,912
- K^b:SIINFEKL^+ DC per LymphNode [4, 9]: 22,239
- Total Cells per Lymph Node ([4]; 20 μl of 0.5 mM in HBSS injected at two sites in abdominal skin, dibutyl phthalate and acetone topically 2 hours later, two days later): 1.1 × 10^7
- Dendritic Cells per Lymph Node [4, 10]: 162,628
- K^b:SIINFEKL^+ DC per LymphNode [4, 10]: 89,598
- Enhancement ([4]; K^b:SIINFEKL+ DC versus HBSS injection): 44×
- Enhancement ([4]; SIINFEKL alone (reference)): 1×
- increase in the total number of dendritic cells per lymph node ([4]; SIINFEKL injection followed by topical migration/maturation inducer versus without): 18.5 fold
- increase in antigen-bearing dendritic cells per lymph node ([4]; SIINFEKL injection with versus without migration/maturation inducer): 44 fold
- Median No. of Complexes/Cell [4, 11]: 860 complexes/cell
- Median Specific Fl. Intensity [4, 11]: 43
- increase in the number of antigen-bearing dendritic cells in the draining lymph nodes ([4]; injection followed by topical induction of migration, two days later): 44 fold
- antigen-bearing (K^b:SIINFEKL positive) dendritic cells in the draining lymph node [5]: no detectable
